Test results: patent US20220117938A1, “COMBINATON THERAPY WITH A DON PRODRUG AND AN IMMUNE CHECKPOINT INHIBITOR” (DRACEN PHARMACEUTICALS, INC., priority 2019, published 2022)

System: CT26.WT tumors
Assay: Anti-tumor efficacy of Compound 1 with and without anti-PD-1 in the CT26.WT murine colorectal model (Example 2B)
Type: in vivo, Mus musculus
Details: for Tumor volume (mm^3), Mean ± SEM: n = 8; for ILS (%) / MST: endpoint tumor volume 2000 mm^3; for RTV at day 15 / T/C (%) / TGI (%) / Tumor Size (mm^3) at day 15, Mean ± SEM: day 15
Protocol: Female BALB/c mice were inoculated subcutaneously at right flank with CT26.WT cells for tumor development. Five days after tumor inoculation, 48 mice with tumor size ranging from 39-61 mm^3 (average tumor size 49 mm^3) were selected and assigned into 6 groups using stratified randomization with 8 mice per group based upon their tumor volumes. The treatments were started from the day of randomization (defined as D0), Group 1 was treated with Vehicle (Tween 80:Ethanol:Saline—5:5:90 v/v/v), s.c. q.d.×14, Group 2 was treated with anti-PD-1 10 mg/kg i.p. q4d×4, Group 3 was treated with Compound 1 3 mg/kg s.c. q.d.×5D followed by 1 mg/kg s.c. q.d.×9D, Group 4 was treated with Compound 1 3 mg/kg s.c. q.d.×5D followed by 1 mg/kg s.c. q.d.×9D+anti-PD-1 10 mg/kg i.p. q4d×4, Group 5 was treated with Compound 1 1 mg/kg s.c. q.d.×14D and Group 6 was treated with Compound 1 1 mg/kg s.c. q.d.×14D+anti-PD-1 10 mg/kg i.p. q4d×4. The tumor sizes were measured three times per week during the treatment. The entire study was terminated on D64 after start of the treatment.
Animal Species: Mus musculus; Strain: BALB/c; Age: 6-8 weeks; Sex: female; Body weight (at treatment start): 20-24 g.
The CT26.WT tumor cells (ATCC, Cat #CRL-2638™) were maintained in vitro as a monolayer culture in RPMI 1640 medium supplemented with 10% heat inactivated fetal bovine serum, 100 U/mL penicillin and 100 μg/mL streptomycin, and L-glutamine (2 mM) at 37° C. in an atmosphere of 5% CO2 in air. The tumor cells were routinely subcultured twice weekly by trypsin-EDTA treatment. The cells growing to a confluency around 70%-80% were harvested and counted for tumor inoculation. The cultured CT26.WT cells were harvested, re-suspended in base medium with viability>90%. Each mouse was inoculated subcutaneously at the right flank with 3×10^5 in 0.05 ml base medium for tumor development.
The treatments were started on day 5 after tumor inoculation when the tumor size reached 39-61 mm^3 (average tumor size 49 mm^3). Each group consisted of 8 tumor bearing mice. The testing article was administrated at the dosing volume indicated to the mice according to the predetermined regimen as shown Table 2B-1. Testing article formulations were prepared according to standard procedures. Details regarding tumor measurements and endpoints, and statistical analysis are provided in EXAMPLE 3.
Tumor sizes were measured three times a week in two dimensions using a caliper, and the volume expressed in mm^3 using the formula: V=0.5 a×b^2 where a and b are the long and short diameters of the tumor, respectively. The tumor sizes were then used for the calculations of both tumor growth inhibition (TGI) and T/C values.
TGI is calculated for each group using the formula: […]
TVTreatment_DayN is the average tumor volume of a treatment group on a given day, TVTreatment_Day0 is the average tumor volume of the treatment group on the first day of treatment, TVVehicle_DayN is the average tumor volume of the vehicle control group on a given day, and TVVehicle_Day0 is the average tumor volume of the vehicle group on the first day of treatment.
The T/C value (in percent) is an indication of antitumor effectiveness, T/C (%)=RTVTreatment/RTVControl×100% (RTVTreatment: the mean RTV of the treatment group; RTVControl: the mean RTV of the vehicle treated group). RTV (relative tumor volume)=TVDayN/TVDay0. TVDayN and TVDay0 is the tumor volume on day N and Day 0 respectively. T/C (%)≤42% is considered as significant antitumor activity and <10% is considered as highly significant antitumor activity by the National Cancer Institute criteria.
Animal survival curve: When an individual animal reached to the termination endpoint (TV>2000 mm^3), the mouse was euthanized. The time from treatment initiation to the termination was deemed as its survival time. Survival curve was plotted by Kaplan-Meier method. Median survival time (MST) was calculated for each group. Increase of life span (ILS) was calculated according to the following formula: […]

For `CC(=O)N[C@@H](Cc1c[nH]c2ccccc12)C(=O)N[C@@H](CCC(=O)C=[N+]=[N-])C(=O)OC(C)C` [Compound 1, Isopropyl (S)-2-((S)-2-acetamido-3-(1H-indol-3-yl)propanamido)-6-diazo-5-oxohexanoate], the “Tumor volume (mm^3), Mean ± SEM” value (1 mg/kg qdx14 s.c., Day 0) was 49 ± 2 mm^3, the “Tumor volume (mm^3), Mean ± SEM” value (1 mg/kg qdx14 s.c., Day 3) was 68 ± 6 mm^3 and the “Tumor volume (mm^3), Mean ± SEM” value (1 mg/kg qdx14 s.c., Day 6) was 92 ± 8 mm^3. The “Tumor volume (mm^3), Mean ± SEM” value (1 mg/kg qdx14 s.c., Day 8) was 104 ± 9 mm^3, the “Tumor volume (mm^3), Mean ± SEM” value (1 mg/kg qdx14 s.c., Day 10) was 112 ± 9 mm^3 and the “Tumor volume (mm^3), Mean ± SEM” value (1 mg/kg qdx14 s.c., Day 13) was 156 ± 18 mm^3. For the same molecule, the “Tumor volume (mm^3), Mean ± SEM” value (1 mg/kg qdx14 s.c., Day 15) was 186 ± 21 mm^3, the “Tumor volume (mm^3), Mean ± SEM” value (3 mg/kg qdx5 then 1 mg/kg qdx9 s.c., Day 0) was 49 ± 2 mm^3 and the “Tumor volume (mm^3), Mean ± SEM” value (3 mg/kg qdx5 then 1 mg/kg qdx9 s.c., Day 3) was 54 ± 2 mm^3. For the same molecule, the “Tumor volume (mm^3), Mean ± SEM” value (3 mg/kg qdx5 then 1 mg/kg qdx9 s.c., Day 6) was 65 ± 3 mm^3, the “Tumor volume (mm^3), Mean ± SEM” value (3 mg/kg qdx5 then 1 mg/kg qdx9 s.c., Day 8) was 139 ± 14 mm^3 and the “Tumor volume (mm^3), Mean ± SEM” value (3 mg/kg qdx5 then 1 mg/kg qdx9 s.c., Day 10) was 180 ± 20 mm^3. The “Tumor volume (mm^3), Mean ± SEM” value (3 mg/kg qdx5 then 1 mg/kg qdx9 s.c., Day 13) was 224 ± 25 mm^3, the “Tumor volume (mm^3), Mean ± SEM” value (3 mg/kg qdx5 then 1 mg/kg qdx9 s.c., Day 15) was 333 ± 41 mm^3 and the “ILS (%)” value (Compound 1 1 mg/kg) was 40%. For the same molecule, the “MST” value (Compound 1 1 mg/kg) was 28 days, the “ILS (%)” value (Compound 1 3/1 mg/kg) was 35% and the “MST” value (Compound 1 3/1 mg/kg) was 27 days. For the same molecule, the “RTV at day 15” value (Cpd. 1 1 mg/kg) was 3.84 ± 0.43, the “T/C (%)” value (Cpd. 1 1 mg/kg) was 15.23% and the “TGI (%)” value (Cpd. 1 1 mg/kg) was 188.18%. For the same molecule, the “Tumor Size (mm^3) at day 15, Mean ± SEM” value (Cpd. 1 1 mg/kg) was 186 ± 21 mm^3, the “RTV at day 15” value (Cpd. 1 3/1 mg/kg) was 4.79 ± 0.69 and the “T/C (%)” value (Cpd. 1 3/1 mg/kg) was 19.00%. For the same molecule, the “TGI (%)” value (Cpd. 1 3/1 mg/kg) was 84.90% and the “Tumor Size (mm^3) at day 15, Mean ± SEM” value (Cpd. 1 3/1 mg/kg) was 224 ± 25 mm^3.
